Data from patent US6809085B1, “Adherent N,O-Carboxymethylchitosan drug delivery devices for moist tissue and methods of their use” (Chitogenics, Inc., priority 1999, dated 2004).
Counter-ions that a name gives are not always drawn. Like-named read-outs stand apart in the source and are kept apart here.

Assay type: in vitro ADME, rabbit
Experimental: Previously harvested pieces of rabbit large bowel (surface area 1.767 cm^2) were mounted in an Improved Franz Diffusion Cell containing 0.9% saline (13ml) as the receptor medium. The vaginal cream of Example 3 (1.0 g) was applied directly to the rabbit tissue; the experiments were performed in triplicate.
Aliquots of 1.0 ml (which were replaced with fresh saline solution) were withdrawn from the receptor chamber at 1, 3, 6, 20, 24, 48 hours. LN in samples was quantified using high performance liquid chromatography (Hewlett Packard, model 1090,series II, fitted with Hypersil C18, 5 μm, 25 cm×4.6 mm column, a UV detector set at 241 nm and an acetonitrile(80%)-water(20%) mobile phase).
Accurately weighed portions of the LN-vaginal cream as well as the cream recovered from the diffusion cells were extracted with 20 ml methanol for 16 hr on a wrist-action shaker and analyzed. […] The replicate results along with an average are plotted.
The permeation studies were conducted as described in Example 12 except that the HPLC analysis was modified; a Spectra Physics, Model SP8800, fitted with Alltima phenyl, 5 micron, 15 cm×4.6 mm column, and a UV detector set at 223 nm was used with an acetonitrile (40%)-0.1% phosphoric acid mobile phase. […]

Compound: CC(=O)O.CC(=O)O.NC(=N\CCCCCC/N=C(N)/N=C(\N)Nc1ccc(Cl)cc1)/N=C(\N)Nc1ccc(Cl)cc1 [chlorhexidine diacetate]
- average permeation rate through the mucosal tissue: 160.8 μg/cm^2/hr

Compound: CN(C)CCC(c1ccc(Cl)cc1)c1ccccn1 (stereo not shown) [chlorpheniramine maleate]
- average permeation rate through the mucosal tissue (rabbit, 48 h, 5 mg per pellet): 97.3 μg/cm^2/hr
- average permeation rate through the mucosal tissue (rabbit, 48 h, 10 mg per pellet): 182 μg/cm^2/hr

Compound: C#C[C@]1(O)CC[C@H]2[C@@H]3CCC4=CC(=O)CC[C@@H]4[C@H]3CC[C@@]21CC [levonorgestrel]
- concentration of LN in the cream recovered following the permeation study: 3.101 ± 0.315 mg/g
- amount of levonorgestrel released through normal tissue (rabbit, 48 h, 3 mg/g): less than 0.5%
- permeation rate of hormone that diffused through the tissue from the cream (rabbit, 48 h, 3 mg/g): 0.163±0.010 μg/cm^2/hr

Compound: CC(C)(C)NC[C@H](O)COc1nsnc1N1CCOCC1 [timolol maleate]
- average permeation rate through the mucosal tissue (rabbit, 24 h): 103.8 μg/cm^2/hr
